Assay results taken from patent US5912269A, “Butyrate prodrugs derived from lactic acid” (Vertex Pharmaceuticals, Inc., priority 1996, dated 1999).
Where two headings read alike, the source gives them in different places.

Columns and labels:
[1] = cited from earlier work
[2] = tested on: Fetal hemoglobin cells (F cells); test: Fetal hemoglobin cells (% F cells), efficacy study in anemic rhesus monkeys; format: in vivo
Hemoglobin F = Hemoglobin F level in total hemoglobin (% Hb F) by HPLC, efficacy study in anemic rhesus monkeys; format: in vivo
Protocol: (§1) The efficacy of compound IIIc administered in conjunction with hydroxyurea was tested on six anemic rhesus monkeys divided into three groups of two each. Each group was studied in two phases, as shown below. Fetal hemoglobin cells (F cells), Hemoglobin F level in total Hemoglobin (% Hb F) and % γ globin chain levels were monitored before and after each of the two phases. % F cells were measured according to the protocol described in Betke et al, Blut., 4, pp. 241-9 (1958). % Hb F and % γ globin chain synthesis were measured using High Performance Liquid Chromatography (HPLC) according to the protocol described in Huisman, J. Chromagtogr., 418, pp. 277 (1987).

[3] = rhesus monkey, in vivo
[4] = tested on: sickle cell anemia patients; settings: cited from earlier work
γ globin chain = test: % γ globin chain levels by HPLC, efficacy study in anemic rhesus monkeys; format: in vivo
Protocol: as §1

[5] = Triglyceride and ALT levels during efficacy study in anemic rhesus monkeys; settings: all three groups, prior to or during the two phases
[6] = Group I (hydroxyurea in Phase I, hydroxyurea + compound IIIc in Phase II)
[7] = Groups II and III (compound IIIc)

CCCC(=O)OCOC(=O)C(C)(C)C [AN-9]
formaldehyde-producing metabolites in vivo [1]: elicit metabolites that may produce formaldehyde in vivo

NC(=O)NO [Hydroxyurea, hydroxyurea]
% F cell count at the end of Phase I ([2]; Animal 1, group I, hydroxyurea 50 mg/kg/day, 5 weeks, 8-10% before Phase I): 25%
% Hb F level (Hemoglobin F; [6]): measurable increase
levels of ALT [3]: no detectable difference
levels of the triglycerides [3]: no detectable difference
fetal hemoglobin production and sickling crisis [4]: stimulates fetal hemoglobin production and reduces sickling crisis
% γ-globin chain levels (γ globin chain; [6]): measurable increase

CCCC(=O)O[C@@H](C)C(=O)OCC [Compound IIIc]
% F cell count at the end of Phase II ([2]; Animal 2, group II, compound IIIc 1 g/kg/TID, 5 weeks, 8-10% before Phase I): 22%
% F cell count at the end of Phase I ([2]; Animal 2, group II, compound IIIc 1 g/kg/day, 5 weeks, 8-10% before Phase I): 15%
increase in % F cells [2, 7]: small but significant increase
HbF (Hemoglobin F; [7]): no measurable change
γ-globin chain levels (γ globin chain; [7]): no measurable change
levels of ALT [5]: no detectable difference
levels of the triglycerides [5]: no detectable difference
